According to patent publication US11596639B2, “Substituted indole Mcl-1 inhibitors” (Vanderbilt University, priority 2016, dated 2023):
Read-outs that look alike come from different tables or passages of the source.

Experiments:
[1] = tested on: H929 human cancer cell lines; assay: Cellular viability / proliferation (Cell TiterGlo, 72 h); assay type: cell-based
How it was run: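 H929 cells plated at 1,000/well in 10% FBS medium received a 2-fold serial compound dilution (top 50 μM, DMSO <1%) 24 h later. After 72 h, viability was read by CellTiter-Glo luminescence. IC50 came from a four-parameter fit.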

[2] = molecular target: Mcl-1 (Homo sapiens (Human), UniProt Q07820); assay: Fluorescence polarization anisotropy (FPA) competition assay, FITC-Bak or FITC-Bim BH3 peptide; assay type: binding; conditions: read-out: Ki for Inhibition of Mcl-1 by FPA assay
[3] = Homo sapiens, NCI-H929, 72 h, read-out: GI50 on cellular proliferation of H929 human cancer cell lines, H929 cells, 72 h, Cell TiterGlo, 10% FBS
[4] = H929 cells, 72 h, Cell TiterGlo, 10% FBS, read-out: GI50 on cellular proliferation of H929 human cancer cell lines

Mcl-1, sequence (Q07820 172-327): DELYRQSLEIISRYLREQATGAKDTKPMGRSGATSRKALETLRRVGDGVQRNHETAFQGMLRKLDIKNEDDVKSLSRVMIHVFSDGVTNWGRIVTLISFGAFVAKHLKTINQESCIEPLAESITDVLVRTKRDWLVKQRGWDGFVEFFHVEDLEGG

Molecule	GI50 [1, 3] [nM]	Ki [2] [nM]	GI50 [1, 4] [nM]
Cc1cc(OCCCc2c3n(c4c(-c5c(C)nn(C)c5C)c(Cl)ccc24)CCCN(c2nn(CCN4CCOCC4)c4cc(C(=O)O)ccc24)C3=O)cc(C)c1Cl [Example 49, 3-(8-chloro-11-(3-(4-chloro-3,5-dimethylphenoxy)propyl)-1-oxo-7-(1,3,5-trimethyl-1H-pyrazol-4-yl)-4,5-dihydro-1H-[1,4]diazepino[1,2-a]indol-2(3H)-yl)-1-(2-morpholinoethyl)-1H-indazole-6-carboxylic acid]	2600	< 1	
COc1ccnc(Cn2c(C(=O)O)cc3cccc(N4C[C@@H](C)n5c(c(CCCOc6cc(C)c(Cl)c(C)c6)c6ccc(Cl)c(-c7c(C)nn(C)c7C)c65)C4=O)c32)c1 [Example 378, (R)-7-(7-Chloro-10-(3-(4-chloro-3,5-dimethylphenoxy)propyl)-4-methyl-1-oxo-6-(1,3,5-trimethyl-1H-pyrazol-4-yl)-3,4-dihydropyrazino[1,2-a]indol-2(1H)-yl)-1-((4-methoxypyridin-2-yl)methyl)-1H-indole-2-carboxylic acid]	410	1.9	
Cc1cc(OCCCc2c3n(c4c(-c5c(C)nn(C)c5C)c(Cl)ccc24)[C@H](C)CN(c2nn(C)c4c(C(=O)O)cccc24)C3=O)cc(C)c1Cl [Example 165, (R)-3-(7-Chloro-10-(3-(4-chloro-3,5-dimethylphenoxy)propyl)-4-methyl-1-oxo-6-(1,3,5-trimethyl-1H-pyrazol-4-yl)-3,4-dihydropyrazino[1,2-a]indol-2(1H)-yl)-1-methyl-1H-indazole-7-carboxylic acid]	1200	1	
Cc1cc(OCCCc2c3n(c4c(-c5c(C)nn(C)c5C)c(Cl)ccc24)[C@H](C)CN(c2cccc4c2c(C(=O)O)cn4C)C3=O)cc(C)c1Cl [Example 182, 4-[(4R)-7-chloro-10-[3-(4-chloro-3,5-dimethyl-phenoxy)propyl]-4-methyl-1-oxo-6-(1,3,5-trimethylpyrazol-4-yl)-3,4-dihydropyrazino[1,2-a]indol-2-yl]-1-methyl-indole-3-carboxylic acid]	1500	< 1	
Cc1cc(N2C[C@@H](C)n3c(c(CCCOc4cc(C)c(Cl)c(C)c4)c4ccc(Cl)c(-c5c(C)nn(C)c5C)c43)C2=O)c2c(c1)cc(C(=O)O)n2C [Example 201, (R)-7-(7-Chloro-10-(3-(4-chloro-3,5-dimethylphenoxy)propyl)-4-methyl-1-oxo-6-(1,3,5-trimethyl-1H-pyrazol-4-yl)-3,4-dihydropyrazino[1,2-a]indol-2(1H)-yl)-1,5-dimethyl-1H-indole-2-carboxylic acid]	< 200	< 1	
Cc1cc(OCCCc2c3n(c4c(-c5c(C)nn(C)c5C)c(Cl)ccc24)[C@H](C)CN(c2cn(C)c4cc(F)c(C(=O)O)cc24)C3=O)cc(C)c1Cl [Example 355, (M, R)-3-(7-Chloro-10-(3-(4-chloro-3,5-dimethylphenoxy)propyl)-4-methyl-1-oxo-6-(1,3,5-trimethyl-1H-pyrazol-4-yl)-3,4-dihydropyrazino[1,2-a]indol-2(1H)-yl)-6-fluoro-1-methyl-1H-indole-5-carboxylic acid]		1	730
Cc1cc(OCCCc2c3n(c4c(-c5c(C)nn(C)c5C)c(Cl)ccc24)[C@H](C)CN(c2cn(C)c4cc(F)c(C(=O)O)cc24)C3=O)cc(C)c1Cl [Example 348, (P, R)-3-(7-Chloro-10-(3-(4-chloro-3,5-dimethylphenoxy)propyl)-4-methyl-1-oxo-6-(1,3,5-trimethyl-1H-pyrazol-4-yl)-3,4-dihydropyrazino[1,2-a]indol-2(1H)-yl)-6-fluoro-1-methyl-1H-indole-5-carboxylic acid]		1.8	1300
Cc1cc(OCCCc2c3n(c4c(-c5c(C)nn(C)c5C)c(Cl)ccc24)[C@H](C)CN(c2ccc4c(C(=O)O)cccc4n2)C3=O)cc(C)c1Cl [Example 157, (R)-2-(7-Chloro-10-(3-(4-chloro-3,5-dimethylphenoxy)propyl)-4-methyl-1-oxo-6-(1,3,5-trimethyl-1H-pyrazol-4-yl)-3,4-dihydropyrazino[1,2-a]indol-2(1H)-yl)quinoline-5-carboxylic acid]	6400	2.5	
Cc1cc(OCCCc2c3n(c4c(-c5c(C)nn(C)c5C)c(Cl)ccc24)[C@H](C)CN(c2cn(C)c4ccc(C(=O)NCc5cccnc5)cc24)C3=O)cc(C)c1Cl [Example 287, 3-[(4R)-7-chloro-10-[3-(4-chloro-3,5-dimethyl-phenoxy)propyl]-4-methyl-1-oxo-6-(1,3,5-trimethylpyrazol-4-yl)-3,4-dihydropyrazino[1,2-a]indol-2-yl]-1-methyl-N-(3-pyridylmethyl)indole-5-carboxamide]	1600	3	
Cc1cc(OCCCc2c3n(c4c(-c5c(C)nn(C)c5C)c(Cl)ccc24)[C@H](C)CN(c2cccc4cc(C(=O)O)[nH]c24)C3=O)cc(C)c1Cl [Example 233, 7-[(4R)-7-chloro-10-[3-(4-chloro-3,5-dimethyl-phenoxy)propyl]-4-methyl-1-oxo-6-(1,3,5-trimethylpyrazol-4-yl)-3,4-dihydropyrazino[1,2-a]indol-2-yl]-1H-indole-2-carboxylic acid]	1400	< 1	
COc1ccc(N2C[C@@H](C)n3c(c(CCCOc4cc(C)c(Cl)c(C)c4)c4ccc(Cl)c(-c5c(C)nn(C)c5C)c43)C2=O)c2cc(C(=O)O)n(C)c12 [Example 344, (M, R)-4-(7-Chloro-10-(3-(4-chloro-3,5-dimethylphenoxy)propyl)-4-methyl-1-oxo-6-(1,3,5-trimethyl-1H-pyrazol-4-yl)-3,4-dihydropyrazino[1,2-a]indol-2(1H)-yl)-7-methoxy-1-methyl-1H-indole-2-carboxylic acid]		< 1	1300
CCn1ccc2c(C(=O)O)cc(N3C[C@@H](C)n4c(c(CCCOc5cc(C)c(Cl)c(C)c5)c5ccc(Cl)c(-c6c(C)nn(C)c6C)c54)C3=O)cc21 [Example 99, (R)-6-(7-chloro-10-(3-(4-chloro-3,5-dimethylphenoxy)propyl)-4-methyl-1-oxo-6-(1,3,5-trimethyl-1H-pyrazol-4-yl)-3,4-dihydropyrazino[1,2-a]indol-2(1H)-yl)-1-ethyl-1H-indole-4-carboxylic acid]		< 1	2100
Cc1cc(OCCCc2c3n(c4c(-c5c(C)ncnc5C)c(Cl)ccc24)CCCN(c2cn(C)c4cc(C(=O)O)ccc24)C3=O)cc(C)c1Cl [Example 176, 3-[8-Chloro-11-[3-(4-chloro-3,5-dimethyl-phenoxy)propyl]-7-(4,6-dimethylpyrimidin-5-yl)-1-oxo-4,5-dihydro-3H-[1,4]diazepino[1,2-a]indol-2-yl]-1-methyl-indole-6-carboxylic acid]	410	< 1	
(R)-3-(7-chloro-10-(3-(4-chloro-3,5-dimethylphenoxy)propyl)-6-(3,5-dimethyl-1-((1-methylpiperidin-4-yl)methyl)-1H-pyrazol-4-yl)-4-methyl-1-oxo-3,4-dihydropyrazino[1,2-a]indol-2(1H)-yl)-1-methyl-1H-indole-5-carboxylic acid [Example 146]		4	2400
Cc1ccnc(Cn2c(C(=O)O)cc3cccc(N4C[C@@H](C)n5c(c(CCCOc6cc(C)c(Cl)c(C)c6)c6ccc(Cl)c(-c7c(C)nn(C)c7C)c65)C4=O)c32)c1 [Example 371, (R)-7-(7-Chloro-10-(3-(4-chloro-3,5-dimethylphenoxy)propyl)-4-methyl-1-oxo-6-(1,3,5-trimethyl-1H-pyrazol-4-yl)-3,4-dihydropyrazino[1,2-a]indol-2(1H)-yl)-1-((4-methylpyridin-2-yl)methyl)-1H-indole-2-carboxylic acid]	300	< 1	
Cc1cc(OCCCc2c3n(c4c(-c5c(C)nn(CCN6CCCC6)c5C)c(Cl)ccc24)[C@H](C)CN(c2cccc4c2cc(C(=O)O)n4C)C3=O)cc(C)c1Cl [Example 318, (R)-4-(7-Chloro-10-(3-(4-chloro-3,5-dimethylphenoxy)propyl)-6-(3,5-dimethyl-1-(2-(pyrrolidin-1-yl)ethyl)-1H-pyrazol-4-yl)-4-methyl-1-oxo-3,4-dihydropyrazino[1,2-a]indol-2(1H)-yl)-1-methyl-1H-indole-2-carboxylic acid]	820	1.5	
Cc1cc(OCCCc2c3n(c4c(-c5c(C)nn(CC6CCOCC6)c5C)c(Cl)ccc24)[C@H](C)CN(c2cn(C)c4ccc(C(=O)O)cc24)C3=O)cc(C)c1Cl [Example 262, (R)-3-(7-chloro-10-(3-(4-chloro-3,5-dimethylphenoxy)propyl)-6-(3,5-dimethyl-1-((tetrahydro-2H-pyran-4-yl)methyl)-1H-pyrazol-4-yl)-4-methyl-1-oxo-3,4-dihydropyrazino[1,2-a]indol-2(1H)-yl)-1-methyl-1H-indole-5-carboxylic acid]	450	< 1	
Cc1cc(OCCCc2c3n(c4c(-c5c(C)ncnc5C)c(Cl)ccc24)CCCN(c2cc(C(=O)O)cc4c2OCCO4)C3=O)cc(C)c1Cl [Example 154, 5-[8-Chloro-11-[3-(4-chloro-3,5-dimethyl-phenoxy)propyl]-7-(4,6-dimethylpyrimidin-5-yl)-1-oxo-4,5-dihydro-3H-[1,4]diazepino[1,2-a]indol-2-yl]-2,3-dihydro-1,4-benzodioxine-7-carboxylic acid]	1300	< 1	
Cc1cc(OCCCc2c3n(c4c(-c5c(C)nn(C)c5C)c(Cl)ccc24)[C@H](C)CN(c2cn(C(C)C)c4ccc(C(=O)O)cc24)C3=O)cc(C)c1Cl [Example 166, (R)-3-(7-Chloro-10-(3-(4-chloro-3,5-dimethylphenoxy)propyl)-4-methyl-1-oxo-6-(1,3,5-trimethyl-1H-pyrazol-4-yl)-3,4-dihydropyrazino[1,2-a]indol-2(1H)-yl)-1-isopropyl-1H-indole-5-carboxylic acid]	1400	< 1	
